Experimental data: patent US20250177476A1, “ANG-(1-7) OLIGOPEPTIDE DERIVATIVES FOR USE IN MITIGATING AMYLOID-RELATED IMAGING ABNORMALITIES” (ProNeurogen, Inc., priority 2023, published 2025)
No end group written: not given here.

Experiments:
[1] = FDA-approved food additive; cited from earlier work
[2] = tested on: Tg-SwDI mouse model of AD and cerebral amyloid angiopathy (CAA); test: Cerebral microbleeds (ARIA-H) in Tg-SwDI mice given PNA5 with or without anti-Aβ antibody; assay type: in vivo; details: Tg-SwDI mice aged 12-13 months; PNA5 30 μL, with PBS or anti-Aβ antibody 3 mg/kg; 2 months; tissue analysis (FIGS. 1A and 1B)
Method: The effect the Ang-(1-7) oligopeptide PNA5 had on cerebral microbleeds (ARIA-H) in a mouse model of AD and cerebral amyloid angiopathy (CAA) was studied.
Tg-SwDI mice aged 12-13 months were administered: (1) the PNA5 vehicle, without PNA5, and PBS, (2) vehicle and an anti-Aβ antibody, (3) PNA5 and PBS, or (4) PNA5 and an anti-Aβ antibody. The anti-AB antibody therapy (IgG) was administered in an amount of 3 mg/kg. The PNA5 was administered in an amount of 30 μL. For groups receiving the PNA5 alone (Group 3), the compounds were administered for […] which point they were administered a […] (NOR) test and Nest building test (FIG. 2) prior to euthanasia and collection of the tissue for analysis of the microbleeds (FIGS. 1A and 1B). For groups receiving the anti-AB antibody and PNA5 (Group 4), the compounds were administered for 2 months at which point they were administered a […] (NOR) test and Nest building test prior (FIG. 2) to euthanasia and collection of the tissue for analysis of the microbleeds (FIGS. 1A and 1B).

Compound | safe human daily intake [1] | cerebral microbleeds (ARIA-H) [2]
CC(=O)OC[C@H]1O[C@H](O[C@]2(COC(C)=O)O[C@H](COC(=O)C(C)C)[C@@H](OC(=O)C(C)C)[C@@H]2OC(=O)C(C)C)[C@H](OC(=O)C(C)C)[C@@H](OC(=O)C(C)C)[C@@H]1OC(=O)C(C)C [SAIB, sucrose acetoisobutyrate] | up to 20 mg/kg | 
PNA5: Ang-(1-7) derivative Asp Arg Val Tyr Ile His Ser* (glycosylated serine), carboxyl terminal end NH2 (DRVYIHS-NH2; not fully specified (residue 7); also: glycan on Ser7 not given here) |  | decreased
